“Also recorded” adds a separate entry of the source. Where two headings read alike, the source gives them in different places.
Tests used:
[1] = test system: ceramide-activated protein kinase
Protocol: Homogenates were centrifuged at 500×g for 5 minutes to remove nuclei and at 200,000×g for 30 minutes to prepare microsomal membranes. Membranes were resuspended into homogenizing buffer (2.2 μg membrane protein μl^-1). For assay of kinase activity, the reaction mixture contained 20 μl of microsomal membrane, 40 μl EGFR peptide (4 mg ml^-1 in 25 mM Hepes, pH 7.4) and 100 μl buffer (50 mM HEPES, pH 7.4, 20 mM MgCl2) (40). Phosphorylation was initiated at 22° C. by addition of 40 μl [γ-^32 P] ATP (100 μM final concentration) and terminated at the indicated times by addition of 40 μl of 0.5M ATP in 90% formic acid. Phosphorylated peptide was eluted from a C18 Sep pak cartridge (Millipore), lyophilized, and resolved by C18 reverse phase HPLC using a linear gradient of acetonitrile. […] All assays were performed under conditions determined as linear for time and enzyme concentration. Enzyme activity was determined from the percent conversion of substrate to product and the specific radioactivity of [γ-^32 P] ATP. […] Values (mean ± range) represent duplicate determinations from two experiments.
Activity was measured by the transfer of ^32 P from the γ-position of ATP to EGFR peptide (AA 663-681 of the EGFR). The effect of IL-1β on kinase activity was determined using microsomal membranes derived from cells stimulated with IL-1β.

[2] = test system: ceramide-activated protein kinase; experiment: Phosphoamino acid analysis of phosphorylated EGFR peptide; type: biochemical, human; settings: A-431
Description: Reactions were done, and phosphorylated peptide was quantified as for FIG. 2. (Left) HPLC elution profile of samples with or without the EGFR peptide. (Right) Phosphoamino acid analysis of the phosphorylated peptide purified by HPLC. Phosphorylated amino acids (Y, […]; T, threonine; S, serine) were resolved by one-dimensional thin-layer electrophoresis and identified by ninhydrin staining of carrier phosphoamino acids and autoradiography.
To determine which amino acid was phosphorylated, phosphoamino acid analysis of the peptide was done. The phosphopeptide peak obtained by HPLC was subjected to partial acid hydrolysis (1 hr at 110° C. in 6M HCl). The hydrolysates were dried, resuspended in 250 μl of water, and applied to a Dowex AG1-X8 column (Bio-Rad). Amino acids were eluted with 0.5M HCl, dried, and analyzed by thin-layer electrophoresis, according to methods well known to those skilled in the art (26). Individual phosphoamino acids were identified by ninhydrin staining of carrier phosphoamino acids and by autoradiography.

[3] = test system: ceramide-activated protein kinase; settings: for effect on EGFR peptide phosphorylation (in words): A-431
[4] = test system: ceramide-activated protein kinase; settings: cited from earlier work
[5] = test system: ceramide-activated protein kinase; settings: HL-60; cholera toxin 10 nM, retinoic acid 0.5 μM, butyrate 0.5 mM
[6] = test system: epidermal growth factor receptor (EGFR); settings: A-431 cells; cited from earlier work
[7] = test system: A-431 human epidermoid carcinoma cells; settings: A-431 cells; cited from earlier work
[8] = test system: HL-60 cells; settings: cited from earlier work
[9] = test system: HL-60 cells; settings: cited from earlier work; remark: listed apart in the source

NH2 -Glu-Leu-Val-Glu-Pro-Leu-Thr-Pro-Ser-Gly-Glu-Ala-Pro-Asn-Gln-Ala-Leu-Leu-Arg-COOH (H-ELVEPLTPSGEAPNQALLR-OH) [EGFR peptide, EGFR peptide (amino acids 663-681)]
maximum reaction velocity ([1]; EL-4, baseline): 12.5 pmol min^-1 mg^-1 of microsomal membrane protein | Michaelis constant (Km) for EGFR peptide ([1]; EL-4 microsomal membrane, baseline): 0.15 mg/mL | phosphorylated residue [2]: only threonine-669 served as substrate | Apparent Km for EGFR peptide ([3]; A-431, 5 minutes): 0.25 mg/mL | Apparent Vmax ([3]; A-431, EGFR peptide substrate): 100-200 pmol.min^-` /mg of protein^-1 | maximum velocity (V°max) ([4]; EGFR peptide substrate): 50 to 100 pmol per minute per milligram (pmol min^-1 mg^-1) of protein | Michaelis constant (Km) for peptide ([4]; nuclei-free supernates): 0.25 mg/mL

Ceramide
phosphorylated residue [2]: exclusively on the threonine residue | lowest effective concentration ([3]; 2 minutes): 1 nM | effect on EGFR peptide phosphorylation (in words) [3]: Only membrane activity was enhanced | effect on EGFR peptide phosphorylation (in words) ([3]; listed as natural ceramide (Sigma type III)): similarly effective | increase in kinase activity ([3]; a-431 cells, 0.5 min, 0.5 µM): 2 -fold | maximal effect on EGFR peptide phosphorylation ([3]; a-431 cells, 2 min, 1 µM): 2.1 -fold of control | lowest effective concentration ([3]; abstract): 1 nM | duration of stimulation of kinase activity ([3]; ceramide 0.5 μM): at least 15 minutes | time at which stimulation of EGFR peptide phosphorylation was evident ([3]; ceramide 0.5 μM): ≤ 30 s | concentration for maximal effect ([3]; peptide phosphorylation, 2 minutes): 1 µM | EC50 ([3]; read-out: ED50 for EGFR peptide phosphorylation, 2 minutes): ~30 nM | effect on kinase activity (in words) [5]: induced a similar effect | maximum enhancement of kinase activity ([4]; ceramide 0.001 to 3 μM): two-fold of the control | EGFR phosphorylation on Thr-669 [6]: induced identical effects; also recorded: induced identical phosphorylation

CCCCCCCCCCCCC/C=C/[C@@H](O)[C@@H](N)CO [sphingosine]
enhancement of kinase activity ([1]; 10 nM to 1 μM): 1.5-2.5 of control | effect on EGFR peptide phosphorylation (in words) [3]: similarly effective | stimulation of EGFR peptide phosphorylation ([3]; sphingosine (0.001-3 μM), 2 minutes): 1.6 fold of control | effect on kinase activity (in words) [5]: similarly as effective as C8-cer | EGFR phosphorylation on Thr-669 [6]: enhanced phosphorylation of the EGFR on Thr-669; also recorded: stimulated phosphorylation of the EGFR on Thr-669; also recorded: induced epidermal growth factor receptor (EGFR) phosphorylation on Thr-669 | conversion to ceramide [7]: rapidly converted to ceramide

B1: γ interferon: factor that induces monocytic differentiation of HL-60 cells (protein, UniProt P01579 24-161, looked up)
Interferon gamma: QDPYVKEAENLKKYFNAGHSDVADNGTLFLGILKNWKEESDRKIMQSQIVSFYFKLFKNFKDDQSIQKSVETIKEDMNVKFFNSNKKKRDDFEKLTNYSVTDLNVQRKAIHELIQVMAELSPAAKTGKRKRSQMLFRG
sphingomyelin degradation to ceramide / ceramide level (in words) [8]: stimulate sphingomyelin degradation to ceramide | monocytic differentiation [9]: induce monocytic differentiation

From patent publication US5451518A, “Purified human ceramide-activated protein kinase” (Sloan-Kettering Institute for Cancer Research, priority 1992, dated 1995)
